Data on 31 molecules can be found in patent US20260209196A1, “AMIDINOUREA DERIVATIVES AND THEIR USE IN THE TREATMENT OF CANCER” (UNIVERSITE COTE D'AZUR, priority 2022, published 2026).

One experiment deals with A375. In words: Cell viability of A375 melanoma cells by Trypan Blue exclusion. Conditions: Homo sapiens, A-375, viable cells as mean percentage of control cells ± SEM, N=3. It counts as cell-based. The procedure: The BRAFV600E mutant melanoma line A375 (CRL-1619) was purchased from ATCC (Manassas, VA, USA). The A375 were maintained in glutamine-containing DMEM supplemented with 10% heat-inactivated fetal bovine serum, penicillin (100 units/ml) and streptomycin ([…]).
Cell viability was measured by the Trypan Blue exclusion method. Briefly, cells washed with PBS were harvested by a 3-minute incubation in 0.05% trypsin before neutralization with serum containing medium. An aliquot of the cell suspension was then mixed 1:1 with a 0.4% Trypan blue solution and viable cells were counted within 5 minutes on Kova slides under an optical microscope. Results are expressed as the mean percentage of control cells±SEM. N=3

The subject of the next experiment is NCI 60 cell panel. The experiment is described as follows: DTP-NCI assay (NCI 60 cell screen, single high dose). It counts as cell-based. Conditions: Homo sapiens, 48 h; single high dose 10^-5 M, full NCI 60 cell panel; growth relative to no-drug control and to time zero number of cells; read-out: DTP-NCI (mean of the percent growth of treated cells). On the procedure:
The effect of 10 μM of MTF504 was monitored on a panel 60 cell lines representing nine distinct tumour types: leukemia, colon, lung, central nervous system, renal, melanoma, ovarian, breast and prostate. Briefly, the compound was sent to the US National Cancer Institute where its antineoplastic effects were monitored on the panel of cell lines after 48 hours of treatment following a standardized protocol.
All compounds submitted to the NCI 60 Cell screen are tested initially at a single high dose (10^-5 M) in the full NCI 60 cell panel. The results are reported as a mean of the percent growth of treated cells. The number reported is growth relative to the no-drug control, and relative to the time zero number of cells. This allows detection of […].

[1] abbreviates: 24 h, read-out: Viab A375 5 μM/24 h.
Where [2] appears, read: 48 h, read-out: Viab A375 5 μM/48 h.
[3] abbreviates: 24 h, read-out: Viab A375 10 μM/24 h.
Setting [4] is: 48 h, read-out: Viab A375 10 μM/48 h.

Read-outs that look alike come from different tables or passages of the source.

As for `N=C(NC(=O)Nc1ccc(Cl)cc1)Nc1nc(-c2cccc([N+](=O)[O-])c2)cs1` [MTF428, N-4-(3-nitrophenyl) thiazol-2-yl-N″-(4-chloroaniline-carbonyl)-guanidine], the viability at 5 µM was 128% in the experiment with A375 (setting [1]) and 50.2% in the experiment with A375 (setting [2]).

Turning to `N=C(NC(=O)Nc1ccc(Br)cc1)Nc1nc(-c2cccc([N+](=O)[O-])c2)cs1` [MTF427, N-4-(3-nitrophenyl) thiazol-2-yl-N″-(4-bromoaniline-carbonyl)-guanidine], the viability at 5 µM in the experiment with A375 (setting [1]) stood at 94.2%; in the experiment on A375 (setting [2]) it was 34.4%. Moreover, in the experiment with NCI 60 cell panel, the activity at 10 µM is 72.5%.

On to `Cc1nc(NC(=N)NC(=O)Nc2ccccc2)sc1C` [MTF496, 4,5-dimethylthiazol-2-yl-N″-(aniline-carbonyl)-guanidine], for which the viability at 5 µM in the experiment on A375 (setting [1]) worked out at 67.7%; in the experiment on A375 (setting [2]), 56.6%. Besides, the activity at 10 µM with NCI 60 cell panel came to 83.8%.

For the molecule `Cc1cccc(NC(=O)NC(=N)Nc2nc(C)c(C)s2)c1` [MTF510, 4,5-dimethylthiazol-2-yl-N″-(3-methylaniline-carbonyl)-guanidine], the results for the viability at 5 µM in the experiment with A375 (setting [1]) and in the experiment with A375 (setting [2]) were 56.5% and 26.1%, respectively. Besides, the activity at 10 µM in the experiment with NCI 60 cell panel is 47.2%.

Take `CCOc1ccccc1NC(=O)NC(=N)Nc1nc2ccccc2s1` [MTF652, N-benzo[d]thiazol-2-yl-N″-(2-ethoxyaniline-carbonyl)-guanidine]: the activity at 10 µM with NCI 60 cell panel turned out to be 12.6%.

On to `Cc1ccccc1NC(=O)NC(=N)Nc1nc2ccccc2s1` [MTF495, N-benzo[d]thiazol-2-yl-N″-(2-methylaniline-carbonyl)-guanidine], for which the results for the viability at 5 µM in the experiment with A375 (setting [1]) and with A375 (setting [2]) were 38.6% and 8%, respectively. The activity at 10 µM in the experiment on NCI 60 cell panel stood at 25.9%.

For the molecule `Cc1nc(NC(=N)NC(=O)Nc2ccc(Br)cc2)sc1C` [MTF429, 4,5-dimethylthiazol-2-yl-N″-(4-bromoaniline-carbonyl)-guanidine], the viability at 5 µM was determined as 94.2% in the experiment on A375 (setting [1]) and 39.1% with A375 (setting [2]).

As for `COc1ccccc1NC(=O)NC(=N)Nc1nc2ccccc2s1` [MTF419, N-benzo[d]thiazol-2-yl-N″-(2-methoxyaniline-carbonyl)-guanidine], the viability at 5 µM with A375 (setting [1]) worked out at 62.6%; with A375 (setting [2]), 18.8%. Also, the viability at 10 µM is 56.8% in the experiment with A375 (setting [3]) and 21.8% in the experiment with A375 (setting [4]). In addition, in the experiment on NCI 60 cell panel, the activity at 10 µM is 26.7%.

With `Cc1cccc(NC(=O)NC(=N)Nc2nc(-c3cccc([N+](=O)[O-])c3)cs2)c1` [MTF431, N-4-(3-nitrophenyl) thiazol-2-yl-N″-(3-methylaniline-carbonyl)-guanidine], the viability at 5 µM stood at 95.4% in the experiment with A375 (setting [1]) and 41.6% in the experiment with A375 (setting [2]).

`Cc1nc(NC(=N)NC(=O)Nc2cccc([N+](=O)[O-])c2)sc1C` [MTF512, 4,5-dimethylthiazol-2-yl-N″-(3-nitroaniline-carbonyl)-guanidine]: the viability at 5 µM with A375 (setting [1]) amounted to 87%; in the experiment on A375 (setting [2]) it was 54.3%.

Turning to `Cc1nc(NC(=N)NC(=O)Nc2ccccc2Cl)sc1C` [MTF505, 4,5-dimethylthiazol-2-yl-N″-(2-chloroaniline-carbonyl)-guanidine], the viability at 5 µM in the experiment with A375 (setting [1]) is 31.1%; in the experiment on A375 (setting [2]) it was 10%. Moreover, the activity at 10 µM with NCI 60 cell panel amounted to 33%.

Take `COc1ccccc1NC(=O)NC(=N)Nc1nc(-c2cccc([N+](=O)[O-])c2)cs1` [MTF434, N-4-(3-nitrophenyl) thiazol-2-yl-N″-(2-methoxyaniline-carbonyl)-guanidine]: the viability at 5 µM with A375 (setting [1]) was 63.8%; in the experiment with A375 (setting [2]) it was 50.7%.

As for `N=C(NC(=O)Nc1cccc2ccccc12)Nc1nc2ccccc2s1` [MTF418, N-benzo[d]thiazol-2-yl-N″-(naphtalen-1-amine-carbonyl)-guanidine], the viability at 5 µM worked out at 16.5% in the experiment with A375 (setting [1]) and 16.7% with A375 (setting [2]). For the same molecule, the values for the viability at 10 µM with A375 (setting [3]) and in the experiment on A375 (setting [4]) were 41% and 4.6%, respectively. In addition, the activity at 10 µM in the experiment on NCI 60 cell panel came to 26.1%.

Consider `N=C(NC(=O)Nc1ccc(Cl)cc1Cl)Nc1nc2ccccc2s1` [MTF649, N-benzo[d]thiazol-2-yl-N″-(2,4-dichloroaniline-carbonyl)-guanidine], for which, in the experiment with NCI 60 cell panel, the activity at 10 µM was -58.2%.

On to `N=C(NC(=O)Nc1ccccc1F)Nc1nc2ccccc2s1` [MTF654, N-benzo[d]thiazol-2-yl-N″-(2-fluoroaniline-carbonyl)-guanidine], for which, in the experiment on NCI 60 cell panel, the activity at 10 µM is 20.3%.

Turning to `N=C(NC(=O)Nc1cccc2ccccc12)Nc1nc(-c2cccc([N+](=O)[O-])c2)cs1` [MTF430, N-4-(3-nitrophenyl) thiazol-2-yl-N″-(naphtalen-1-amine-carbonyl)-guanidine], the values for the viability at 5 µM with A375 (setting [1]) and in the experiment on A375 (setting [2]) were 75.8% and 25.3%, respectively. Besides, the activity at 10 µM in the experiment on NCI 60 cell panel was 89.2%.

Take `N=C(NC(=O)Nc1ccccc1Cl)Nc1nc2ccc([N+](=O)[O-])cc2s1` [MTF657, N-6-nitrobenzo[d]thiazol-2-yl-N″-(2-chloroaniline-carbonyl)-guanidine]: the activity at 10 µM in the experiment with NCI 60 cell panel was 31.2%.

In the case of `COc1ccccc1NC(=O)NC(=N)Nc1nc(-c2ccccc2)cs1` [MTF433, N-4-phenylthiazol-2-yl-N″-(2-methoxyaniline-carbonyl)-guanidine], the viability at 5 µM worked out at 109% with A375 (setting [1]) and 43.9% in the experiment with A375 (setting [2]).

With `Cc1ccccc1NC(O)NC(=N)Nc1nc(-c2cccc([N+](=O)[O-])c2)cs1` (stereo not drawn) [MTF515, N-4-(3-nitrophenyl) thiazol-2-yl-N″-(2-methylaniline-carbonyl)-guanidine], the figures for the viability at 5 µM in the experiment with A375 (setting [1]) and with A375 (setting [2]) were 64.9% and 28.7%, respectively. Besides, the activity at 10 µM in the experiment with NCI 60 cell panel was 37.7%.

For `Cc1nc(NC(=N)NC(=O)Nc2ccc(Cl)cc2)sc1C` [MTF507, 4,5-dimethylthiazol-2-yl-N″-(4-chloroaniline-carbonyl)-guanidine], the viability at 5 µM was 98.9% with A375 (setting [1]) and 139% in the experiment on A375 (setting [2]).

For `N=C(NC(=O)Nc1ccc(Cl)cc1)Nc1nc(-c2ccccc2)cs1` [MTF426, N-4-phenylthiazol-2-yl-N″-(4-chloroaniline-carbonyl)-guanidine], the values for the viability at 5 µM in the experiment with A375 (setting [1]) and with A375 (setting [2]) were 109% and 46.4%, respectively.

On to `N=C(NC(=O)Nc1cccc(Cl)c1)Nc1nc2ccccc2s1` [MTF415, N-benzo[d]thiazol-2-yl-N″-(3-chloroaniline-carbonyl)-guanidine], for which the viability at 5 µM is 93.5% in the experiment with A375 (setting [1]) and 32.9% with A375 (setting [2]). Also, the viability at 10 µM was determined as 58.3% in the experiment with A375 (setting [3]) and 19.9% in the experiment on A375 (setting [4]). The activity at 10 µM in the experiment on NCI 60 cell panel was 35.4%.

With `COc1cccc(NC(=O)NC(=N)Nc2nc(-c3cccc([N+](=O)[O-])c3)cs2)c1` [MTF432, N-4-(3-nitrophenyl) thiazol-2-yl-N″-(3-methoxyaniline-carbonyl)-guanidine], the viability at 5 µM is 115% in the experiment with A375 (setting [1]) and 29.8% in the experiment with A375 (setting [2]). The activity at 10 µM in the experiment on NCI 60 cell panel turned out to be 74.8%.

For the molecule `CCc1ccccc1NC(=O)NC(=N)Nc1nc2ccccc2s1` [MTF653, N-benzo[d]thiazol-2-yl-N″-(2-ethylaniline-carbonyl)-guanidine], in the experiment on NCI 60 cell panel, the activity at 10 µM was found to be 0.27%.

On to `N=C(NC(=O)Nc1ccccc1Br)Nc1nc2ccccc2s1` [MTF651, N-benzo[d]thiazol-2-yl-N″-(2-bromoaniline-carbonyl)-guanidine], for which, in the experiment on NCI 60 cell panel, the activity at 10 µM was -17.8%.

Consider `N=C(NC(=O)Nc1ccccc1[N+](=O)[O-])Nc1nc2ccccc2s1` [MTF655, N-benzo[d]thiazol-2-yl-N″-(2-nitroaniline-carbonyl)-guanidine], for which, in the experiment on NCI 60 cell panel, the activity at 10 µM amounted to 11.6%.

With `COc1cccc(NC(=O)NC(=N)Nc2nc(C)c(C)s2)c1` [MTF511, 4,5-dimethylthiazol-2-yl-N″-(3-methoxyaniline-carbonyl)-guanidine], the viability at 5 µM in the experiment on A375 (setting [1]) was 92.1%; in the experiment with A375 (setting [2]), 82.8%.

For `N=C(NC(=O)Nc1c(Cl)cccc1Cl)Nc1nc2ccccc2s1` [MTF650, N-benzo[d]thiazol-2-yl-N″-(2,6-dichloroaniline-carbonyl)-guanidine], the activity at 10 µM with NCI 60 cell panel was 36.4%.

`N=C(NC(=O)Nc1cccc2ccccc12)Nc1nc(-c2ccccc2)cs1` [MTF435, N-4-phenylthiazol-2-yl-N″-(naphtalen-1-amine-carbonyl)-guanidine]: the viability at 5 µM came to 81% in the experiment on A375 (setting [1]) and 84.6% in the experiment with A375 (setting [2]).

Regarding `N=C(NC(=O)NC1CC1)Nc1nc2ccccc2s1` [MTF214, N—(N-(benzo[d]thiazol-2-yl)carbamimidoyl)cyclopropylamine-1-carboxamide], the viability at 5 µM in the experiment with A375 (setting [1]) was determined as 98.2%; in the experiment with A375 (setting [2]) it was 76.6%. The values for the viability at 10 µM with A375 (setting [3]) and in the experiment on A375 (setting [4]) were 51.5% and 87.7%, respectively.

Consider `Cc1ccc(Cl)cc1NC(=O)NC(=N)Nc1nc2ccccc2s1` [MTF656, N-benzo[d]thiazol-2-yl-N″-(2-methyl-5-chloroaniline-carbonyl)-guanidine], for which the activity at 10 µM with NCI 60 cell panel is -19.4%.
